Data: US20090258883A1, “1H-Indole-Pyridinecarboxamide and 1H-Indole-Piperidinecarboxamide Compounds” (LES LABORATOIRES SERVIER, priority 2005, published 2009)
Marks after values point to notes of the source that are not given here.

Biological target: dopaminergic receptors (type D1) (Homo sapiens, UniProt P21728)
Assay: Affinity for receptors, displacement of labelled specific ligand: D1
Format: binding
Settings: concentration 10^−5 M

Chain of dopaminergic receptors (type D1) (P21728 whole entry): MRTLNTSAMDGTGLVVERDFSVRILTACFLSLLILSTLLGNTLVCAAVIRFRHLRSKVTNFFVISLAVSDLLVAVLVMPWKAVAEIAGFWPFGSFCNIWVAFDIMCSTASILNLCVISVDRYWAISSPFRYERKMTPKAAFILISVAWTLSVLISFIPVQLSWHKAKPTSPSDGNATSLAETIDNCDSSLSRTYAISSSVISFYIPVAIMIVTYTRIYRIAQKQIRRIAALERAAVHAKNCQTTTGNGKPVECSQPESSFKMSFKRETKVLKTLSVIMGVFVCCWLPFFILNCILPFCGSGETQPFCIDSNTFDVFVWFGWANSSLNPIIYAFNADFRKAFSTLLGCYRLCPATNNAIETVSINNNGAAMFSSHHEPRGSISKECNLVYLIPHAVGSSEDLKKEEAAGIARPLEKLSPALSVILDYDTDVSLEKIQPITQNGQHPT

Row | SMILES | inhibition at 10 µM
1 | C=CCN1CCCC(C(=O)Nn2ccc3cc(Cl)ccc32)C1 (centres unmarked) [Example 12, 1-Allyl-N-(5-chloro-1H-indol-1-yl)piperidine-3-carboxamide] | < 10%

Same assay, conditions: concentration 10^−7 M

Row | SMILES | inhibition at 0.1 µM
2 | C=CCN1CCCC(C(=O)Nn2ccc3cc(Cl)ccc32)C1 (centres unmarked) [Example 12, 1-Allyl-N-(5-chloro-1H-indol-1-yl)piperidine-3-carboxamide] | < 10%

System: muscarinic (M) receptors
Assay: Affinity for receptors, displacement of labelled specific ligand: muscarinic
Format: binding
Settings: concentration 10^−5 M
Method: (§1) The affinity for receptors is determined according to customary methods of relations between the specific ligand and the receptor, which may be of animal origin or a human recombinant. The affinity was determined by the method of displacement of the labelled specific ligand by the compound under test and expressed by the dissociation constant KI. The receptor affinity was accordingly studied for 28 conventional receptors.

Row | SMILES | % inhibition M
3 | C=CCN1CCCC(C(=O)Nn2ccc3cc(Cl)ccc32)C1 (centres unmarked) [Example 12, 1-Allyl-N-(5-chloro-1H-indol-1-yl)piperidine-3-carboxamide] | 51%

System: sigma (σ) receptors (ligand: haloperidol)
Assay: Affinity for receptors, displacement of labelled specific ligand: sigma
Format: binding
Settings: concentration 10^−5 M
Method: as §1

Row | SMILES | % inhibition σ
4 | C=CCN1CCCC(C(=O)Nn2ccc3cc(Cl)ccc32)C1 (centres unmarked) [Example 12, 1-Allyl-N-(5-chloro-1H-indol-1-yl)piperidine-3-carboxamide] | 85%

Same assay, conditions: concentration 10^−7 M

Row | SMILES | % inhibition σ
5 | C=CCN1CCCC(C(=O)Nn2ccc3cc(Cl)ccc32)C1 (centres unmarked) [Example 12, 1-Allyl-N-(5-chloro-1H-indol-1-yl)piperidine-3-carboxamide] | 18%

System: tyrosine hydroxylase (TH) protein
Assay: Induction of tyrosine hydroxylase (TH) in LC, SN and VTA of the mouse brain
Format: in vivo, Balb/C mouse
Settings: LC
From the text: A search is made among the compounds for those which are capable of bringing about an increase in the tyrosine hydroxylase (TH) protein in the locus coeruleus (LC), substantia nigra (SN) and ventral tegmental area (VTA) of the brain of the Balb/C mouse. The animals used are consanguinal male mice of the pure Balb/C strain (Charles River Laboratories) aged 6 weeks at the time of treatment.
The mice are given a single injection, by the intraperitoneal route, of the compound under test, dissolved in 0.04M HCl solution (corresponding control: 0.04M HCl), if the compound is sufficiently soluble, or in olive oil 90%/DMSO 10% (corresponding control: olive oil 90%/DMSO 10%) for compounds that are insoluble in an aqueous medium. The volume injected is 100 μl. The test groups comprise 10 animals.
Three days after the injection of each compound, all the animals are sacrificed by decapitation. The brains are removed and then frozen in an isopentane solution at −30° C. for 45 seconds and subsequently stored at −80° C.
Serial coronal sections 20 microns thick are then taken using a cryomicrotome. Each structure of interest is then sampled along the posterior-anterior axis of the brain by taking sections at 80-micron spacings in the case of the LC and at 80- or 160-micron spacings in the case of the VTA and SN. The limits of those structures are those described in the atlas of Franklin and Paxinos. The total proteins of each of those sections are transferred by direct collection of the sections to a nitrocellulose filter (Millipore). The amounts of TH present in each sample are measured by immunochemistry, fluorimetric detection and image analysis.

Row | SMILES | TH induction in the LC, in words
6 | C=CCN1CCCC(C(=O)Nn2ccc3cc(Cl)ccc32)C1 (centres unmarked) [Example 12, 1-Allyl-N-(5-chloro-1H-indol-1-yl)piperidine-3-carboxamide] | without increasing expression of the protein

Same assay, conditions: LC section 1 (posterior-to-anterior), i.p. 20 mg/kg, three days after single injection, relative to mean value of control group

Row | SMILES | amount of TH in LC section 1
7 | C=CCN1CCCC(C(=O)Nn2ccc3cc(Cl)ccc32)C1 (centres unmarked) [Example 12, 1-Allyl-N-(5-chloro-1H-indol-1-yl)piperidine-3-carboxamide] | 57%

Same assay, conditions: LC section 2, i.p. 20 mg/kg, three days after single injection, relative to mean value of control group

Row | SMILES | amount of TH in LC section 2
8 | C=CCN1CCCC(C(=O)Nn2ccc3cc(Cl)ccc32)C1 (centres unmarked) [Example 12, 1-Allyl-N-(5-chloro-1H-indol-1-yl)piperidine-3-carboxamide] | 70%

Same assay, conditions: LC section 3, i.p. 20 mg/kg, three days after single injection, relative to mean value of control group

Row | SMILES | amount of TH in LC section 3
9 | C=CCN1CCCC(C(=O)Nn2ccc3cc(Cl)ccc32)C1 (centres unmarked) [Example 12, 1-Allyl-N-(5-chloro-1H-indol-1-yl)piperidine-3-carboxamide] | 80%

Same assay, conditions: LC section 4, i.p. 20 mg/kg, three days after single injection, relative to mean value of control group

Row | SMILES | amount of TH in LC section 4
10 | C=CCN1CCCC(C(=O)Nn2ccc3cc(Cl)ccc32)C1 (centres unmarked) [Example 12, 1-Allyl-N-(5-chloro-1H-indol-1-yl)piperidine-3-carboxamide] | 110%

Same assay, conditions: LC section 5, i.p. 20 mg/kg, three days after single injection, relative to mean value of control group

Row | SMILES | amount of TH in LC section 5
11 | C=CCN1CCCC(C(=O)Nn2ccc3cc(Cl)ccc32)C1 (centres unmarked) [Example 12, 1-Allyl-N-(5-chloro-1H-indol-1-yl)piperidine-3-carboxamide] | 114%

Same assay, conditions: LC section 6, i.p. 20 mg/kg, three days after single injection, relative to mean value of control group

Row | SMILES | amount of TH in LC section 6
12 | C=CCN1CCCC(C(=O)Nn2ccc3cc(Cl)ccc32)C1 (centres unmarked) [Example 12, 1-Allyl-N-(5-chloro-1H-indol-1-yl)piperidine-3-carboxamide] | 92%

Same assay, conditions: LC section 7, i.p. 20 mg/kg, three days after single injection, relative to mean value of control group

Row | SMILES | amount of TH in LC section 7
13 | C=CCN1CCCC(C(=O)Nn2ccc3cc(Cl)ccc32)C1 (centres unmarked) [Example 12, 1-Allyl-N-(5-chloro-1H-indol-1-yl)piperidine-3-carboxamide] | 95%

Same assay, conditions: LC section 8, i.p. 20 mg/kg, three days after single injection, relative to mean value of control group

Row | SMILES | amount of TH in LC section 8
14 | C=CCN1CCCC(C(=O)Nn2ccc3cc(Cl)ccc32)C1 (centres unmarked) [Example 12, 1-Allyl-N-(5-chloro-1H-indol-1-yl)piperidine-3-carboxamide] | 82%

Same assay, conditions: LC section 9, i.p. 20 mg/kg, three days after single injection, relative to mean value of control group

Row | SMILES | amount of TH in LC section 9
15 | C=CCN1CCCC(C(=O)Nn2ccc3cc(Cl)ccc32)C1 (centres unmarked) [Example 12, 1-Allyl-N-(5-chloro-1H-indol-1-yl)piperidine-3-carboxamide] | 98%

Same assay, conditions: LC section 10, i.p. 20 mg/kg, three days after single injection, relative to mean value of control group

Row | SMILES | amount of TH in LC section 10
16 | C=CCN1CCCC(C(=O)Nn2ccc3cc(Cl)ccc32)C1 (centres unmarked) [Example 12, 1-Allyl-N-(5-chloro-1H-indol-1-yl)piperidine-3-carboxamide] | 94%

Same assay, conditions: LC section 11, i.p. 20 mg/kg, three days after single injection, relative to mean value of control group

Row | SMILES | amount of TH in LC section 11
17 | C=CCN1CCCC(C(=O)Nn2ccc3cc(Cl)ccc32)C1 (centres unmarked) [Example 12, 1-Allyl-N-(5-chloro-1H-indol-1-yl)piperidine-3-carboxamide] | 26%

Same assay, conditions: LC total, i.p. 20 mg/kg, three days after single injection, relative to mean value of control group

Row | SMILES | amount of TH, LC, total
18 | C=CCN1CCCC(C(=O)Nn2ccc3cc(Cl)ccc32)C1 (centres unmarked) [Example 12, 1-Allyl-N-(5-chloro-1H-indol-1-yl)piperidine-3-carboxamide] | 90%

Same assay, conditions: SN

Row | SMILES | TH induction in the SN, in words
19 | C=CCN1CCCC(C(=O)Nn2ccc3cc(Cl)ccc32)C1 (centres unmarked) [Example 12, 1-Allyl-N-(5-chloro-1H-indol-1-yl)piperidine-3-carboxamide] | induce TH in the SN

Same assay, conditions: VTA

Row | SMILES | TH induction in the VTA, in words
20 | C=CCN1CCCC(C(=O)Nn2ccc3cc(Cl)ccc32)C1 (centres unmarked) [Example 12, 1-Allyl-N-(5-chloro-1H-indol-1-yl)piperidine-3-carboxamide] | without increasing expression of the protein

Same assay, conditions: substantia nigra, single i.p. injection, relative to mean value of control group

Row | SMILES | TH induction in the SN
21 | C=CCN1CCCC(C(=O)Nn2ccc3cc(Cl)ccc32)C1 (centres unmarked) [Example 12, 1-Allyl-N-(5-chloro-1H-indol-1-yl)piperidine-3-carboxamide] | 122* %

Same assay, conditions: ventral tegmental area, single i.p. injection, relative to mean value of control group

Row | SMILES | TH induction in the VTA
22 | C=CCN1CCCC(C(=O)Nn2ccc3cc(Cl)ccc32)C1 (centres unmarked) [Example 12, 1-Allyl-N-(5-chloro-1H-indol-1-yl)piperidine-3-carboxamide] | 95%

Biological target: 5HT receptors (type 5HT2A) (Homo sapiens, UniProt P28223)
Assay: Affinity for receptors, displacement of labelled specific ligand: 5HT2A
Format: binding
Settings: concentration 10^−5 M

Chain of 5HT receptors (type 5HT2A) (P28223 whole entry): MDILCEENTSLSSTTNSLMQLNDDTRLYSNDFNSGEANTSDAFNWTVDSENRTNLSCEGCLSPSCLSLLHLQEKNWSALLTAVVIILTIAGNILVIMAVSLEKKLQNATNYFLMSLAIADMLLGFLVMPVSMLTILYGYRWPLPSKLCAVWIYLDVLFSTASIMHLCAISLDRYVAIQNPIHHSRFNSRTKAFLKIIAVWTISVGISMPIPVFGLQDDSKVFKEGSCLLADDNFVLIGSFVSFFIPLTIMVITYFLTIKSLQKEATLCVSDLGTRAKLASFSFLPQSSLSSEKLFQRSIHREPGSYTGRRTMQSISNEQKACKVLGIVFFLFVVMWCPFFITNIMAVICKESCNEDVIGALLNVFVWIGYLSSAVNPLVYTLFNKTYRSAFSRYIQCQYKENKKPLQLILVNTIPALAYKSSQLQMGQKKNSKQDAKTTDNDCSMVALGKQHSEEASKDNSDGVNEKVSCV

Row | SMILES | inhibition at 10 µM
23 | C=CCN1CCCC(C(=O)Nn2ccc3cc(Cl)ccc32)C1 (centres unmarked) [Example 12, 1-Allyl-N-(5-chloro-1H-indol-1-yl)piperidine-3-carboxamide] | < 10%

Same assay, conditions: concentration 10^−7 M

Row | SMILES | inhibition at 0.1 µM
24 | C=CCN1CCCC(C(=O)Nn2ccc3cc(Cl)ccc32)C1 (centres unmarked) [Example 12, 1-Allyl-N-(5-chloro-1H-indol-1-yl)piperidine-3-carboxamide] | < 10%

Biological target: dopaminergic receptors (type D2) (Homo sapiens, UniProt P14416)
Assay: Affinity for receptors, displacement of labelled specific ligand: D2
Format: binding
Settings: concentration 10^−5 M

Chain of dopaminergic receptors (type D2) (P14416 whole entry): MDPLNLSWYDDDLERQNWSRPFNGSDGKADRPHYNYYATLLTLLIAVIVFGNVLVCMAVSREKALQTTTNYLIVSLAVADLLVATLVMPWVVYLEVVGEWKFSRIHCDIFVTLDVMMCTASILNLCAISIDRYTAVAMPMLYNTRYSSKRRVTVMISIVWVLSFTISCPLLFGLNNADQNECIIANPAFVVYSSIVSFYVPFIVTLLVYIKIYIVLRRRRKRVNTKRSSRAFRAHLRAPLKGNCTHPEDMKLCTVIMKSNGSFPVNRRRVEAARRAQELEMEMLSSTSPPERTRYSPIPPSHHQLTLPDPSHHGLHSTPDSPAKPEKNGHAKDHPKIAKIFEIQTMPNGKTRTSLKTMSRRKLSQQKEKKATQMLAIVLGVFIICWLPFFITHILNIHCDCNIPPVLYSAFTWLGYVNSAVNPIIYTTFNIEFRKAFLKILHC

Row | SMILES | inhibition at 10 µM
25 | C=CCN1CCCC(C(=O)Nn2ccc3cc(Cl)ccc32)C1 (centres unmarked) [Example 12, 1-Allyl-N-(5-chloro-1H-indol-1-yl)piperidine-3-carboxamide] | < 10%

Same assay, conditions: concentration 10^−7 M

Row | SMILES | inhibition at 0.1 µM
26 | C=CCN1CCCC(C(=O)Nn2ccc3cc(Cl)ccc32)C1 (centres unmarked) [Example 12, 1-Allyl-N-(5-chloro-1H-indol-1-yl)piperidine-3-carboxamide] | < 10%
